Laboratory results published in patent US20150025233A1, “USE OF LIPID CONJUGATES IN THE TREATMENT OF DISEASES” (priority 2001, published 2015).
Where two headings read alike, the source gives them in different places.

Test system: DTH-induced mice
Experiment: Dermal DTH response, oxalozone-induced ear swelling in mice (Experiments 5.1-5.4)
Assay type: in vivo, mouse
Conditions: for inhibition at 3 µmol/kg: Mus musculus
Procedure: Three modes of administration were performed: 1) The Lipid-conjugate in saline was injected intraperitoneally daily beginning day 0 until day 6 (Table 5.1); 2) The Lipid-conjugate in saline was injected subcutaneously into the ear (adjacent to the challenged area) in two injections, either 3 h before application of oxalozone to the ear or 1 h after application of oxalozone to the ear (Table 5.2); 3) EtOH:H2O 1:1 was applied topically to both ears on top of the challenged area daily beginning day 0 until day 6 (Table 5.3); 4) the Lipid-conjugate was applied topically only to the right ear for 5 times 4-6 hours following the challenge (Table 5.4) using either 20 μL of 0.1% DEXPE in 50% EtOH or 20 μl of Dermovat (steroid ointment). In all experiments control Group A (late sensitized only) was treated by topical application of oxalozone to both sides of the ear 24 hours before measuring its swelling. […] Of particular interest are the results presented in Table 5.4, showing that although the topical administration of the drug was unilateral in both cases, the steroid affected both ears, while the topically applied Lipid-conjugate affected only the area to which it was applied, indicative of a lack of systemic infiltration of the Lipid-conjugate in this context.

[1] = Intraperitoneal, fully sensitized, 5 mg (15 μmol/kg)
[2] = Subcutaneous, fully sensitized, 1 mg (3 μmol/kg)
[3] = Unilateral topical, on right ear only, 3 μmol/kg, dermovat

Which results are given for `C[C@H]1C[C@H]2[C@@H]3CCC4=CC(=O)C=C[C@]4(C)[C@@]3(F)[C@@H](O)C[C@]2(C)[C@@]1(O)C(=O)CO` [betamethasone]?
Percent inhibition of ear swelling [1]: 74%; Swelling after sensitization - Swelling of normal ear, Mean ± S.D. (n = 12) [1]: 6.5 ± 1.35 0.1 mm; inhibition at 3 µmol/kg (Topical, fully sensitized, 3 μmol/kg, read-out: Percent inhibition of ear swelling): 60%; inhibition at 3 µmol/kg (Unilateral topical, on right ear only, 3 μmol/kg, dermovat, read-out: Percent inhibition, Left ear): 63%; inhibition at 3 µmol/kg (Unilateral topical, on right ear only, 3 μmol/kg, dermovat, read-out: Percent inhibition, Right ear): 63%; Percent inhibition of ear swelling [2]: 72%; Swelling after sensitization - Swelling of normal ear, Mean ± S.D. (n = 12) [2]: 8.1 ± 1.19 0.1 mm; Swelling after sensitization - Swelling of normal ear, Mean ± S.D. (n = 12) (Topical, fully sensitized, 3 μmol/kg): 10.6 ± 0.84 0.1 mm; Swelling after sensitization - Swelling of normal ear, Left ear, Mean ± S.D. (n = 10) [3]: 7.0 ± 1.0 0.1 mm; Swelling after sensitization - Swelling of normal ear, Right ear, Mean ± S.D. (n = 10) [3]: 7.0 ± 1.0 0.1 mm
